Patent US10364227B2, “Therapeutic compounds” (ARIZONA BOARD OF REGENTS ON BEHALF OF ARIZONA STATE …, priority 2015, dated 2019)

How the values were obtained:
[1] = Bioavailability in a mouse model (blood level after oral gavage); assay type: in vivo; conditions: whole blood, 100 mg/kg oral gavage in olive oil, blood sample 6 h after gavage, quantified by HPLC
Procedure: Bioavailability is an important characteristic of many therapeutic agents. Accordingly, certain compounds disclosed herein were tested for bioavailability in a mouse model.
The test compound was prepared on the day of dose administration by dissolving the appropriate amount of test article in olive oil to reach the proper concentrations.
The dose of 100 mg/kg body weight (total volume of administration was <120 μL) was used for testing. For example, a mouse whose body weight is 20 g would need 2 mg of test article in oral gavage. Mice were food deprived overnight. On the experimental day, mice were weighed to obtain dosage information before oral gavage was performed. Blood and brain samples were collected at the desired post-dose time points after oral gavage. Brain samples were perfused to exclude blood as a factor in the analysis of bioavailability.

[2] = calculated value, James et al. (2005) J Biol. Chem. 280, 21295; cited from earlier work

Row | Structure (SMILES) | melting point | other results
1 | CCCCCCCCCCCCCCCOc1nc(N2CCC2)nc(C)c1O [Compound 11, 2-(Azetidin-1-yl)-4-methyl-6-(pentadecyloxy)pyrimidin-5-ol] | 83 to 85 °C | 
2 | CCCCCCCCCCCCCCCCc1nc(N2CCCCC2)nc(OC2CCC2)c1O [Compound 15, 4-Cyclobutoxy-2-(piperidin-1-yl)-6-hexadecylpyrimidin-5-ol] | 78 to 79 °C | 
3 | CCCCCCCCCCCCCCCCc1nc(N2CCC2)nc(OC2CCC2)c1O [Compound 12, 2-(Azetidin-1-yl)-4-cyclobutanoxy-6-hexadecylpyrimidin-5-ol] |  | concentration at 6 h [1]: ~4 µM
4 | COC1=C(OC)C(=O)C(C/C=C(\C)CC/C=C(\C)CC/C=C(\C)CC/C=C(\C)CC/C=C(\C)CC/C=C(\C)CC/C=C(\C)CC/C=C(\C)CC/C=C(\C)CCC=C(C)C)=C(C)C1=O [coenzyme Q10] |  | calculated octanol-water partition coefficient [2]: > 10^20
5 | [2H]C([2H])([2H])N(c1nc(CCCCCCCCCCCCCCCC)c(O)c(OC2CCC2)n1)C([2H])([2H])[2H] [Compound 13, 4-Cyclobutoxy-2-(N,N-dimethylamino)-6-hexadecylpyrimidin-5-ol-d6] | 72 to 73 °C | 
6 | CCCCCCCCCCCCCCCCc1nc(N2CCCC2)nc(OC2CCC2)c1O [Compound 14, 4-Cyclobutoxy-2-(pyrrolidin-1-yl)-6-hexadecylpyrimidin-5-ol] | 74 to 76 °C | 

The next lines start with results.

Row | melting point | Structure (SMILES) | other results
7 | 79 to 80 °C | CCCCCCCCCCCCCCCCc1nc(N2CCC2)nc(OCC)c1O [Compound 9, 2-(Azetidin-1-yl)-4-ethoxy-6-hexadecylpyrimidin-5-ol] | 
8 | 59 to 60 °C | CCCCCCCCCCCCCCCCc1nc(N2CCC2)nc(OC)c1O [Compound 8, 2-(Azetidin-1-yl)-4-methoxy-6-hexadecylpyrimidin-5-ol] | 
9 | 75 to 76 °C | [2H]C(CCCCCCCCCCCCCCC)c1nc(N(C([2H])([2H])[2H])C([2H])([2H])[2H])nc(OC([2H])([2H])[2H])c1O (stereo not drawn) [Compound 2, 2-(N,N-dimethylamino-d6)-4-(1-hexadecyl-d1)-6-(methoxy-d3)-pyrimidin-5-ol] | 
